Assay results from patent US20230174649A1, “PHARMACEUTICAL COMPOSITIONS CONTAINING ANTI-CD47 ANTIBODIES” (I-MAB BIOPHARMA US LIMITED, priority 2020, published 2023).
Where “and” joins values, the source holds several entries; their conditions need not be identical. Equal entries are not always repeated.

Assays:
Toledo Cells = experiment: FACS-based phagocytosis assay, macrophages cocultured with Toledo cells; format: cell-based, Human
Procedure: FACS-based phagocytosis assays were performed to evaluate the phagocytic abilities of macrophages.
Toledo Cells (a tumor cell line, as a target) were labelled with CellTrace™ Far Red and plated into 96-well plate at a density of 0.15×10^6 cells/well for 12 hours. The Macrophages were prepared as discussed above and then labelled with CellTrace Violet. Next, the macrophages were added into the plate as an effector at an effector:target (Toledo) ratio of 1:3, giving a final density of macrophages at 0.05×10^6 cells/well. Macrophages and tumor cells were cocultured for 2-6 h at 37° C. in the presence of the indicated treatments (small molecule therapeutic agents, CD47 antibody, CD20 antibody or combinations). The incubation time depending on the phagocytosis rate, expecting phagocytosis of 5-20% cells.
Then, cells were acquired and data were analyzed.

WSU-DLCL2 cells = experiment: Anti-tumor efficacy in WSU-DLCL2 tumor xenograft model; format: in vivo, NOD/SCID mice; details: 5 mg/kg each agent; for T/C (%) / TGI (%): day 43
Excerpt: To establish the xenograft model, human diffuse large B Cell lymphoma (WSU-DLCL2 cells) were subcutaneously (s.c.) injected into 6- to 7-week-old NOD/SCID mice (Shanghai Lingchang Biotechnology Co., Ltd, Shanghai, China) for tumor development. When tumor volume reaches a mean value of approximately 94 mm^3, 32 mice were divided into 4 groups of 8 equally and injected intravenously (i.v.) with PBS (control group), anti-CD47 antibody (i.e. T4J), rituximab, or anti-CD47 antibody T4J+ rituximab at a dose of 5 mg/kg, respectively (See, Table 5). The anti-tumor efficacy studies were performed using a twice per week dosing schedule (5 mg/kg) for 4 weeks.
The first day of antibody administration was designated as day 0. Mice were then monitored for tumor development and progression, and observation continued until day 43. Tumor volumes were measured twice a week in two dimensions (length and width) using a caliper, and the volumes were calculated using the following formula: Volume (V)=(L×W×W)/2, where L is tumor length (the longest tumor dimension) and W is tumor width (the longest tumor dimension perpendicular to L). The percentage of tumor growth inhibition (TGI) was calculated as follows: 100%×(1−[(Vtreated(^finalday)−Vtreated(^initial day))/(Vcontrol(^final day)−Vcontrol(^initial day)))]), where V is the tumor volume. Tumor body weight was measured twice per week after randomization and at day 43. Antibody treatment was then stopped after 43 days of study and mice were euthanized and necropsied for evidence of tumors.
Group comparisons were carried out using one-way analysis of variance (ANOVA). Data analysis were performed using IBM SPSS software version 18.0 (IBM, Armonk, N.Y., U.S.). Values of tumor volume and tumor body weight were expressed as mean±standard error of the mean (SEM). A P value of less than 0.05 (p<0.05) was considered statistically significant.

macrophages = experiment: Macrophage Viability Assay (CellTiter-Glo); format: cell-based, Human; details: for Macrophage viability (CellTiter-Glo Luminescent Cell Viability Assay): 16 hours, three replicate lines
Procedure: Then, the monocytes isolated by MACS were subsequently cultured in fresh complete medium supplemented with recombinant human granulocyte-macrophage colony-stimulating factor GM-CSF (50 ng/ml) and human recombinant IL-4 (35 ng/ml) to activate differentiated macrophages. After 6 days of culture (on day 7), cells were harvested, pooled together and counted for next use.
The cells from Example 2 were plated into a 96-well flat bottom plate at a density of 0.05×10^6 cells/well. After 2 hours of incubation, the macrophages were well attached to the plate. Then selected small molecule therapeutic agents were added to the well and cocultured for 16 hours. On day 8, macrophage viability was assessed by CellTiter-Glo® Luminescent Cell Viability Assay, according to the manufacture's instruction.

CD47 = experiment: FACS analysis of expression level of CD47 on tumor cell surface; format: cell-based, Human; details: Toledo cells, 12 hours
Procedure: (§1) For FACS analysis, on the day of analysis (day 1), Toledo cells were seeded into 96 well plate and cultured at a density of 0.2×10^6 cells/well. Then the cells were treated with the selected small molecule therapeutic agents for 12 hours.
(§2) On day 2, cells were harvested, washed twice and then re-suspended in 100 uL FACS buffer subject to FACS analysis. For detection of the expression of calreticulin and CD47, cells were incubated with anti-calreticulin antibody and commercially available anti-CD47 antibody (BD Biosciences, Catalog number: 561249) in dark at 4° C. for 30 mins.
(§3) Then, the cells were subject to FACS analysis. Data was acquired and analyzed.

Calreticulin = experiment: FACS analysis of expression level of calreticulin on tumor cell surface; format: cell-based, Human; details: Toledo cells, 12 hours
Procedure: as §1, §2, §3

[1] = from tumor volume, i.v., BIW × 4 weeks

**Q.** What does the source list for “Rituximab: anti-CD20 antibody, heavy chain SEQ ID NO: 83, light chain SEQ ID NO: 84”?
**A.** macrophage phagocytosis (untreated = 1.00) (Toledo Cells; Cpd 0, T4J = 0, R = 0.01 ug/ml, listed as R): 1.36 and 1.31 and 1.57 and 1.38; phagocytic ability of macrophages (Toledo Cells; agent itself or antibody combination): can promote macrophage phagocytosis; Tumor Body Weight (mg) on day 43 (Mean ± SEM) (WSU-DLCL2 cells; i.v., BIW × 4 weeks): 1673.7 ± 269.0 mg; Tumor Volume (mm^3) on day 43 (Mean ± SEM) (WSU-DLCL2 cells; i.v., BIW × 4 weeks): 1578.37 ± 241.53 mm^3; T/C (%) (WSU-DLCL2 cells; from tumor body weight): 66%; TGI (%) (WSU-DLCL2 cells; from tumor body weight): 34%; T/C (%) (WSU-DLCL2 cells; [1]): 73%; TGI (%) (WSU-DLCL2 cells; [1]): 27%

**Q.** `Cn1c(CCCC(=O)O)nc2cc(N(CCCl)CCCl)ccc21` [Bendamustine] was tested. Which “Macrophage viability (CellTiter-Glo Luminescent Cell Viability Assay)” value (from here on “Macrophage viability”) (macrophages; Cpd 0.002 uM) did it give?
**A.** 6292 and 6220 and 5908

**Q.** And the “Macrophage viability” value (macrophages; Cpd 0.008 uM)?
**A.** 6248 and 6356 and 6028

**Q.** And the “Macrophage viability” value (macrophages; Cpd 0.04 uM)?
**A.** 6248 and 6124 and 5788

**Q.** And the “Macrophage viability” value (macrophages; Cpd 0.2 uM)?
**A.** 6320 and 6664 and 5768

**Q.** What about the “Macrophage viability” value (macrophages; Cpd 1 uM) of the same molecule?
**A.** 6220 and 6200 and 5436

**Q.** And the “Macrophage viability” value (macrophages; Cpd 5 uM)?
**A.** 6424 and 6308 and 5064

**Q.** What about the “Macrophage viability” value (macrophages; Cpd 25 uM) of the same molecule?
**A.** 5884 and 5724 and 4340

**Q.** What about the “Macrophage viability” value (macrophages; Cpd 50 uM) of the same molecule?
**A.** 5500 and 5736 and 4112

**Q.** And the “toxicity to macrophages” value (macrophages; dose as high as 50 μM)?
**A.** showed toxicity

**Q.** And the “toxicity to macrophages” value (macrophages; dose lower than 10 μM)?
**A.** little toxic

**Q.** What about the “Mean Fluorescence Intensity (MFI) CD47” value (CD47; 0.008 uM) of the same molecule?
**A.** 9132

**Q.** And the “Mean Fluorescence Intensity (MFI) CD47” value (CD47; 0.04 uM)?
**A.** 8684

**Q.** And the “Mean Fluorescence Intensity (MFI) CD47” value (CD47; 0.2 uM)?
**A.** 8687

**Q.** What about the “Mean Fluorescence Intensity (MFI) CD47” value (CD47; 1 uM) of the same molecule?
**A.** 8319

**Q.** What about the “Mean Fluorescence Intensity (MFI) CD47” value (CD47; 5 uM) of the same molecule?
**A.** 9192

**Q.** And the “Mean Fluorescence Intensity (MFI) Calreticulin” value (Calreticulin; 0.008 uM)?
**A.** 68.6

**Q.** What about the “Mean Fluorescence Intensity (MFI) Calreticulin” value (Calreticulin; 0.04 uM) of the same molecule?
**A.** 70.1

**Q.** And the “Mean Fluorescence Intensity (MFI) Calreticulin” value (Calreticulin; 0.2 uM)?
**A.** 70.2

**Q.** And the “Mean Fluorescence Intensity (MFI) Calreticulin” value (Calreticulin; 1 uM)?
**A.** 76.3

**Q.** And the “Mean Fluorescence Intensity (MFI) Calreticulin” value (Calreticulin; 5 uM)?
**A.** 86.2

**Q.** What about the “macrophage phagocytosis (untreated = 1.00)” value (from here on “macrophage phagocytosis”) (Toledo Cells; Cpd 0.0016 uM, T4J = 0, R = 0) of the same molecule?
**A.** 1.06

**Q.** And the “macrophage phagocytosis” value (Toledo Cells; Cpd 0.0016 uM, T4J = 0, R = 0.01 ug/ml)?
**A.** 1.58

**Q.** And the “macrophage phagocytosis” value (Toledo Cells; Cpd 0.0016 uM, T4J = 0.1 ug/ml, R = 0)?
**A.** 2.53

**Q.** And the “macrophage phagocytosis” value (Toledo Cells; Cpd 0.0016 uM, T4J = 0.1 ug/ml, R = 0.01 ug/ml)?
**A.** 3.29

**Q.** What about the “macrophage phagocytosis” value (Toledo Cells; Cpd 0.008 uM, T4J = 0, R = 0) of the same molecule?
**A.** 1.00

**Q.** What about the “macrophage phagocytosis” value (Toledo Cells; Cpd 0.008 uM, T4J = 0, R = 0.01 ug/ml) of the same molecule?
**A.** 1.52

**Q.** What about the “macrophage phagocytosis” value (Toledo Cells; Cpd 0.008 uM, T4J = 0.1 ug/ml, R = 0) of the same molecule?
**A.** 2.67

**Q.** What about the “macrophage phagocytosis” value (Toledo Cells; Cpd 0.008 uM, T4J = 0.1 ug/ml, R = 0.01 ug/ml) of the same molecule?
**A.** 3.26

**Q.** And the “macrophage phagocytosis” value (Toledo Cells; Cpd 0.04 uM, T4J = 0, R = 0)?
**A.** 0.98

**Q.** What about the “macrophage phagocytosis” value (Toledo Cells; Cpd 0.04 uM, T4J = 0, R = 0.01 ug/ml) of the same molecule?
**A.** 1.53

**Q.** What about the “macrophage phagocytosis” value (Toledo Cells; Cpd 0.04 uM, T4J = 0.1 ug/ml, R = 0) of the same molecule?
**A.** 2.57

**Q.** And the “macrophage phagocytosis” value (Toledo Cells; Cpd 0.04 uM, T4J = 0.1 ug/ml, R = 0.01 ug/ml)?
**A.** 3.19

**Q.** What about the “macrophage phagocytosis” value (Toledo Cells; Cpd 0.2 uM, T4J = 0, R = 0) of the same molecule?
**A.** 0.96

**Q.** And the “macrophage phagocytosis” value (Toledo Cells; Cpd 0.2 uM, T4J = 0, R = 0.01 ug/ml)?
**A.** 1.41

**Q.** What about the “macrophage phagocytosis” value (Toledo Cells; Cpd 0.2 uM, T4J = 0.1 ug/ml, R = 0) of the same molecule?
**A.** 2.51

**Q.** And the “macrophage phagocytosis” value (Toledo Cells; Cpd 0.2 uM, T4J = 0.1 ug/ml, R = 0.01 ug/ml)?
**A.** 3.10

**Q.** And the “macrophage phagocytosis” value (Toledo Cells; Cpd 1 uM, T4J = 0, R = 0)?
**A.** 1.03

**Q.** What about the “macrophage phagocytosis” value (Toledo Cells; Cpd 1 uM, T4J = 0, R = 0.01 ug/ml) of the same molecule?
**A.** 1.46

**Q.** And the “macrophage phagocytosis” value (Toledo Cells; Cpd 1 uM, T4J = 0.1 ug/ml, R = 0)?
**A.** 2.47

**Q.** And the “macrophage phagocytosis” value (Toledo Cells; Cpd 1 uM, T4J = 0.1 ug/ml, R = 0.01 ug/ml)?
**A.** 3.05

**Q.** What about the “phagocytic ability of macrophages” value (Toledo Cells; triple combination: T4J, Rituximab and the small molecule) of the same molecule?
**A.** does not show the synergistic effects
